Laboratory results published in ChEMBL document CHEMBL1201862, “PubChem BioAssay data set” (2004).
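Test compounds were applied to cells in 96-well plates for 48 hours at 5 doses. Abbreviation: GI50, concentration required for 50% inhibition of growth.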 Activity calls are given as the source filed them. No stated cut-off is given here; in the data, active = GI50 up to about 1.1 µM and inactive = higher.

Tests used:
Assay in all cases: inhibition of tumour cell growth, NCI panel, 48 h
[1] = test system: PC-3
[2] = test system: SF-268
[3] = test system: SK-MEL-5
[4] = test system: EKVX
[5] = test system: UACC-62
[6] = test system: 786-0
[7] = test system: NCI-H226
[8] = test system: NCI/ADR-RES
[9] = test system: SF-539
[10] = test system: NCI-H460
[11] = test system: BT-549
[12] = test system: TK-10
[13] = test system: HCT-116
[14] = test system: NCI-H522
[15] = test system: COLO 205
[16] = test system: Malme-3M
[17] = test system: DU-145
[18] = test system: HOP-62
[19] = test system: CAKI-1
[20] = test system: OVCAR-5
[21] = test system: A549
[22] = test system: SNB-19
[23] = test system: LOX IMVI
[24] = test system: M14
[25] = test system: ACHN
[26] = test system: UACC-257
[27] = test system: MDA-N
[28] = test system: IGROV-1
[29] = test system: RXF 393
[30] = test system: OVCAR-3
[31] = test system: SF-295
[32] = test system: UO-31
[33] = test system: SK-OV-3
[34] = test system: HCC 2998
[35] = test system: NCI-H23
[36] = test system: MCF7
[37] = test system: HCT-15
[38] = test system: KM12
[39] = test system: MDA-MB-231
[40] = test system: OVCAR-4
[41] = test system: HT-29
[42] = test system: SR
[43] = test system: SN12C
[44] = test system: OVCAR-8
[45] = test system: SK-MEL-2
[46] = test system: HL-60
[47] = test system: T47D
[48] = test system: SW-620
[49] = test system: SNB-75
[50] = test system: RPMI-8226
[51] = test system: K562
[52] = test system: CCRF-CEM
[53] = test system: U-251
[54] = test system: SK-MEL-28
[55] = test system: MDA-MB-435
[56] = test system: MOLT-4
[57] = test system: A498

SMILES: C=CCn1c(-c2ccccc2)cs/c1=N\C(P(=O)(O)O)P(=O)(O)O
- GI50 [1]: > 100 µM (inactive)
- GI50 [2]: > 100 µM (inactive)
- GI50 [3]: > 100 µM (inactive)
- GI50 [4]: > 100 µM (inactive)
- GI50 [5]: > 100 µM (inactive)
- GI50 [6]: > 100 µM (inactive)
- GI50 [7]: > 100 µM (inactive)
- GI50 [8]: > 100 µM (inactive)
- GI50 [9]: > 100 µM (inactive)
- GI50 [10]: > 100 µM (inactive)
- GI50 [11]: > 100 µM (inactive)
- GI50 [12]: > 100 µM (inactive)
- GI50 [13]: > 100 µM (inactive)
- GI50 [14]: > 100 µM (inactive)
- GI50 [15]: > 100 µM (inactive)
- GI50 [16]: > 100 µM (inactive)
- GI50 [17]: > 100 µM (inactive)
- GI50 [18]: > 100 µM (inactive)
- GI50 [19]: > 100 µM (inactive)
- GI50 [20]: > 100 µM (inactive)
- GI50 [21]: > 100 µM (inactive)
- GI50 [22]: > 100 µM (inactive)
- GI50 [23]: > 100 µM (inactive)
- GI50 [24]: > 100 µM (inactive)
- GI50 [25]: > 100 µM (inactive)
- GI50 [26]: > 100 µM (inactive)
- GI50 [27]: > 100 µM (inactive)
- GI50 [28]: > 100 µM (inactive)
- GI50 [29]: > 100 µM (inactive)
- GI50 [30]: > 100 µM (inactive)
- GI50 [31]: > 100 µM (inactive)
- GI50 [32]: > 100 µM (inactive)
- GI50 [33]: > 100 µM (inactive)
- GI50 [34]: > 100 µM (inactive)
- GI50 [35]: > 100 µM (inactive)
- GI50 [36]: > 100 µM (inactive)
- GI50 [37]: > 100 µM
- GI50 [38]: > 100 µM (inactive)
- GI50 [39]: > 100 µM (inactive)

SMILES: O=c1c2ncn(C3CCCO3)c2n(-c2ccccc2)c(=S)n1-c1ccccc1 (stereo not drawn)
- GI50 [1]: > 100 µM (inactive)
- GI50 [2]: > 100 µM (inactive)
- GI50 [3]: > 100 µM (inactive)
- GI50 [4]: > 100 µM (inactive)
- GI50 [40]: > 100 µM (inactive)
- GI50 [41]: > 100 µM (inactive)
- GI50 [5]: > 100 µM (inactive)
- GI50 [42]: > 100 µM (inactive)
- GI50 [6]: > 100 µM (inactive)
- GI50 [43]: > 100 µM (inactive)
- GI50 [7]: > 100 µM (inactive)
- GI50 [44]: > 100 µM (inactive)
- GI50 [8]: > 100 µM (inactive)
- GI50 [9]: > 100 µM (inactive)
- GI50 [10]: > 100 µM (inactive)
- GI50 [11]: > 100 µM (inactive)
- GI50 [12]: > 100 µM (inactive)
- GI50 [13]: > 100 µM (inactive)
- GI50 [14]: > 100 µM (inactive)
- GI50 [15]: > 100 µM (inactive)
- GI50 [17]: > 100 µM (inactive)
- GI50 [18]: > 100 µM (inactive)
- GI50 [19]: > 100 µM (inactive)
- GI50 [20]: > 100 µM (inactive)
- GI50 [21]: > 100 µM (inactive)
- GI50 [45]: > 100 µM (inactive)
- GI50 [23]: > 100 µM (inactive)
- GI50 [46]: > 100 µM (inactive)
- GI50 [47]: > 100 µM (inactive)
- GI50 [48]: > 100 µM (inactive)
- GI50 [24]: > 100 µM (inactive)
- GI50 [25]: > 100 µM (inactive)
- GI50 [49]: 97.7 µM (inactive)
- GI50 [50]: > 100 µM (inactive)
- GI50 [26]: > 100 µM (inactive)
- GI50 [51]: > 100 µM (inactive)
- GI50 [52]: > 100 µM (inactive)
- GI50 [28]: > 100 µM (inactive)
- GI50 [53]: > 100 µM (inactive)
- GI50 [29]: > 100 µM (inactive)
- GI50 [30]: > 100 µM (inactive)
- GI50 [31]: > 100 µM (inactive)
- GI50 [32]: > 100 µM (inactive)
- GI50 [33]: > 100 µM (inactive)
- GI50 [34]: > 100 µM (inactive)
- GI50 [35]: > 100 µM (inactive)
- GI50 [36]: > 100 µM (inactive)
- GI50 [37]: > 100 µM
- GI50 [54]: > 100 µM (inactive)
- GI50 [55]: > 100 µM (inactive)
- GI50 [38]: > 100 µM (inactive)
- GI50 [56]: > 100 µM (inactive)
- GI50 [57]: > 100 µM (inactive)
- GI50 [39]: > 100 µM (inactive)
